Laboratory results published in article PMC8401933 (Molecules, 2021).

Key:
Test in all cases: KINOMEscan binding
Details in all cases: read-out: Percent Control
CSNK1A1L = biological target: T1, CSNK1A1L (Homo sapiens, UniProt Q8N752)
T1 construct: purchased Eurofins DiscoverX KINOMEscan

TYRO3 = biological target: T2, TYRO3 (Homo sapiens, UniProt Q06418)
T2 construct: purchased Eurofins DiscoverX KINOMEscan

SRC = biological target: T3, SRC (Homo sapiens, UniProt P12931)
T3 construct: purchased Eurofins DiscoverX KINOMEscan

PFTAIRE2 = biological target: T4, PFTAIRE2 (Homo sapiens, UniProt Q96Q40)
T4 construct: purchased Eurofins DiscoverX KINOMEscan

KIT(D816V) = biological target: T5, KIT(D816V) (Homo sapiens, UniProt P10721, D816V)
T5 construct: purchased Eurofins DiscoverX KINOMEscan

ULK1 = biological target: T6, ULK1 (Homo sapiens, UniProt O75385)
T6 construct: purchased Eurofins DiscoverX KINOMEscan

WNK4 = biological target: T7, WNK4 (Homo sapiens, UniProt Q96J92)
T7 construct: purchased Eurofins DiscoverX KINOMEscan

PIM3 = biological target: T8, PIM3 (Homo sapiens, UniProt Q86V86)
T8 construct: purchased Eurofins DiscoverX KINOMEscan

ALK(L1196M) = biological target: T9, ALK(L1196M) (Homo sapiens, UniProt Q9UM73, L1196M)
T9 construct: purchased Eurofins DiscoverX KINOMEscan

QSK = biological target: T10, QSK (Homo sapiens, UniProt Q9Y2K2)
T10 construct: purchased Eurofins DiscoverX KINOMEscan

[1] = biological target: T11, RPS6KA4(Kin.Dom.1-N-terminal) (Homo sapiens, UniProt O75676)
T11 construct: RPS6KA4(Kin.Dom.1-N-terminal); purchased Eurofins DiscoverX KINOMEscan

OSR1 = biological target: T12, OSR1 (Homo sapiens, UniProt O95747)
T12 construct: purchased Eurofins DiscoverX KINOMEscan

[2] = biological target: T13, ABL1(Q252H)-phosphorylated (Homo sapiens, UniProt P00519, Q252H)
T13 construct: purchased Eurofins DiscoverX KINOMEscan

[3] = biological target: T14, TYK2(JH2domain-pseudokinase) (Homo sapiens, UniProt P29597)
T14 construct: TYK2(JH2domain-pseudokinase); purchased Eurofins DiscoverX KINOMEscan

NEK7 = biological target: T15, NEK7 (Homo sapiens, UniProt Q8TDX7)
T15 construct: purchased Eurofins DiscoverX KINOMEscan

CHEK1 = biological target: T16, CHEK1 (Homo sapiens, UniProt O14757)
T16 construct: purchased Eurofins DiscoverX KINOMEscan

DAPK1 = biological target: T17, DAPK1 (Homo sapiens, UniProt P53355)
T17 construct: purchased Eurofins DiscoverX KINOMEscan

FGFR1 = biological target: T18, FGFR1 (Homo sapiens, UniProt P11362)
T18 construct: purchased Eurofins DiscoverX KINOMEscan

RIOK3 = biological target: T19, RIOK3 (Homo sapiens, UniProt O14730)
T19 construct: purchased Eurofins DiscoverX KINOMEscan

MUSK = biological target: T20, MUSK (Homo sapiens, UniProt O15146)
T20 construct: purchased Eurofins DiscoverX KINOMEscan

HUNK = biological target: T21, HUNK (Homo sapiens, UniProt P57058)
T21 construct: purchased Eurofins DiscoverX KINOMEscan

IKK-epsilon = biological target: T22, IKK-epsilon (Homo sapiens, UniProt Q14164)
T22 construct: purchased Eurofins DiscoverX KINOMEscan

FLT3(R834Q) = biological target: T23, FLT3(R834Q) (Homo sapiens, UniProt P36888, R834Q)
T23 construct: purchased Eurofins DiscoverX KINOMEscan

ERK1 = biological target: T24, ERK1 (Homo sapiens, UniProt P27361)
T24 construct: purchased Eurofins DiscoverX KINOMEscan

INSRR = biological target: T25, INSRR (Homo sapiens, UniProt P14616)
T25 construct: purchased Eurofins DiscoverX KINOMEscan

IKK-alpha = biological target: T26, IKK-alpha (Homo sapiens, UniProt O15111)
T26 construct: purchased Eurofins DiscoverX KINOMEscan

PCTK2 = biological target: T27, PCTK2 (Homo sapiens, UniProt Q00537)
T27 construct: purchased Eurofins DiscoverX KINOMEscan

[4] = biological target: T28, RSK3(Kin.Dom.1-N-terminal) (Homo sapiens, UniProt Q15349)
T28 construct: RSK3(Kin.Dom.1-N-terminal); purchased Eurofins DiscoverX KINOMEscan

KIT(D816H) = biological target: T29, KIT(D816H) (Homo sapiens, UniProt P10721, D816H)
T29 construct: purchased Eurofins DiscoverX KINOMEscan

[5] = biological target: T30, ABL1(Y253F)-phosphorylated (Homo sapiens, UniProt P00519, Y253F)
T30 construct: purchased Eurofins DiscoverX KINOMEscan

RIPK2 = biological target: T31, RIPK2 (Homo sapiens, UniProt O43353)
T31 construct: purchased Eurofins DiscoverX KINOMEscan

[6] = biological target: T32, ABL1(F317L)-phosphorylated (Homo sapiens, UniProt P00519, F317L)
T32 construct: purchased Eurofins DiscoverX KINOMEscan

HIPK1 = biological target: T33, HIPK1 (Homo sapiens, UniProt Q86Z02)
T33 construct: purchased Eurofins DiscoverX KINOMEscan

T31 sequence (O43353 whole entry): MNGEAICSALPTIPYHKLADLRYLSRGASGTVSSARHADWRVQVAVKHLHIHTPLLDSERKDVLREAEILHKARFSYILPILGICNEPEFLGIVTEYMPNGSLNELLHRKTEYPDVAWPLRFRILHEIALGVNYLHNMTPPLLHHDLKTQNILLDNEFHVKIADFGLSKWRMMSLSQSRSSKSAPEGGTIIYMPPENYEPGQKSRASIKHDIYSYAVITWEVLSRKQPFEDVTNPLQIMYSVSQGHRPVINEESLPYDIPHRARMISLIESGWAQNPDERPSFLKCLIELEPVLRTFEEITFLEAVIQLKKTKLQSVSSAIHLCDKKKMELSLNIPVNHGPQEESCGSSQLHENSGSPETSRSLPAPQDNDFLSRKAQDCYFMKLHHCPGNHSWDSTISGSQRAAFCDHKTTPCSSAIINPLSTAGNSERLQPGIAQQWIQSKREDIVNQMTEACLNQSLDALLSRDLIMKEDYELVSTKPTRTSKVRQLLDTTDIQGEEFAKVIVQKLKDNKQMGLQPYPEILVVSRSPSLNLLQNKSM
T25 sequence (P14616 27-1297): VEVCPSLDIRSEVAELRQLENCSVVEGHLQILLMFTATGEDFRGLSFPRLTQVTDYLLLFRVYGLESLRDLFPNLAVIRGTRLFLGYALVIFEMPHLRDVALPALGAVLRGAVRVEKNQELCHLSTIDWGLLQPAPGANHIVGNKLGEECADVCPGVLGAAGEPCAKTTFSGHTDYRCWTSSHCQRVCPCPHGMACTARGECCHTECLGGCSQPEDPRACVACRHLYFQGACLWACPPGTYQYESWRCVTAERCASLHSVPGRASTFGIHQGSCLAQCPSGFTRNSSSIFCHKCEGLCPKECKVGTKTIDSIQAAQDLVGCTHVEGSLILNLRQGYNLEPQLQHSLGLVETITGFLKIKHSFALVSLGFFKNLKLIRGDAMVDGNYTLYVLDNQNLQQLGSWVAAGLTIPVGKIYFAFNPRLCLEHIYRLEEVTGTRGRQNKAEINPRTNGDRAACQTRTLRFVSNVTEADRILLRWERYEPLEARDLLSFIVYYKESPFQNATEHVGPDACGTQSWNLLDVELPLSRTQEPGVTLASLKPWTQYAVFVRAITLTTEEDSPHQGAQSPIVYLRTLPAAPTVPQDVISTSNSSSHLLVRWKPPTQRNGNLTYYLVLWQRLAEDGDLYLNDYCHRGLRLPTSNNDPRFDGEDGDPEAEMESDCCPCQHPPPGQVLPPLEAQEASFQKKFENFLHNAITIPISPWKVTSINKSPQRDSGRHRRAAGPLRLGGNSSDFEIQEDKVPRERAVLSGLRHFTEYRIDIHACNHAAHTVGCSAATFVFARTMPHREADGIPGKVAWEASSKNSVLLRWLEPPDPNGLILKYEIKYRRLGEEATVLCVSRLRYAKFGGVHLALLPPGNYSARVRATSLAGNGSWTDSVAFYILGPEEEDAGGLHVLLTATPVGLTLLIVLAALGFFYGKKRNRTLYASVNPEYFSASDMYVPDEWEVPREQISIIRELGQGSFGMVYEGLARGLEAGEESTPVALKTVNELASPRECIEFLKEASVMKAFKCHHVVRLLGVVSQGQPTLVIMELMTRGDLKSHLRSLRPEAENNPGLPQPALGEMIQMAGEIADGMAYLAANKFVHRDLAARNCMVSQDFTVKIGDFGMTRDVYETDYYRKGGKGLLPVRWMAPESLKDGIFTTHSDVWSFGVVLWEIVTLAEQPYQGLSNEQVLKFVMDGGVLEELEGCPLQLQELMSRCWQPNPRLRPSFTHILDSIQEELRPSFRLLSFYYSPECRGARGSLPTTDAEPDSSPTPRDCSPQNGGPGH
T24 sequence (P27361 whole entry): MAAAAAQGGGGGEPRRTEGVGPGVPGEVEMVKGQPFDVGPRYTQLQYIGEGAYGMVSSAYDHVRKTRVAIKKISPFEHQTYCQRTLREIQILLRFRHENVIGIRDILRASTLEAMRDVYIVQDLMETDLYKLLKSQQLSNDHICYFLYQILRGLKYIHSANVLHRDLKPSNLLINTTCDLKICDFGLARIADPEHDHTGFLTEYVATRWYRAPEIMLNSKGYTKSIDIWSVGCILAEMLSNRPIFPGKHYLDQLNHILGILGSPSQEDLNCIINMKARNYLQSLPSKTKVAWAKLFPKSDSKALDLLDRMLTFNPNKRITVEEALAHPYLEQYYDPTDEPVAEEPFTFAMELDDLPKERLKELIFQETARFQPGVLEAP
T16 sequence (O14757 whole entry): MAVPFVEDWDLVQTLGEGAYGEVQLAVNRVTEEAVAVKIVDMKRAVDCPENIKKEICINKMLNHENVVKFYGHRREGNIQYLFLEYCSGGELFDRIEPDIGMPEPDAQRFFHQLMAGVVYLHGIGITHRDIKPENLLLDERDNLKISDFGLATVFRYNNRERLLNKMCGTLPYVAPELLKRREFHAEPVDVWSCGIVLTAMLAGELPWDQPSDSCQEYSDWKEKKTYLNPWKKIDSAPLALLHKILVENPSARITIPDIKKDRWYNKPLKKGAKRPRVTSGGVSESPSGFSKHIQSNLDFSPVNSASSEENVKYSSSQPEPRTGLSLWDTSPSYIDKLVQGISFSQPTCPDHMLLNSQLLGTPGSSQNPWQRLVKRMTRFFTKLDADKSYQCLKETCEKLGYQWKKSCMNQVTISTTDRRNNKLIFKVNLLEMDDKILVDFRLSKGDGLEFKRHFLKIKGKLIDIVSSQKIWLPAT
T3 sequence (P12931 whole entry): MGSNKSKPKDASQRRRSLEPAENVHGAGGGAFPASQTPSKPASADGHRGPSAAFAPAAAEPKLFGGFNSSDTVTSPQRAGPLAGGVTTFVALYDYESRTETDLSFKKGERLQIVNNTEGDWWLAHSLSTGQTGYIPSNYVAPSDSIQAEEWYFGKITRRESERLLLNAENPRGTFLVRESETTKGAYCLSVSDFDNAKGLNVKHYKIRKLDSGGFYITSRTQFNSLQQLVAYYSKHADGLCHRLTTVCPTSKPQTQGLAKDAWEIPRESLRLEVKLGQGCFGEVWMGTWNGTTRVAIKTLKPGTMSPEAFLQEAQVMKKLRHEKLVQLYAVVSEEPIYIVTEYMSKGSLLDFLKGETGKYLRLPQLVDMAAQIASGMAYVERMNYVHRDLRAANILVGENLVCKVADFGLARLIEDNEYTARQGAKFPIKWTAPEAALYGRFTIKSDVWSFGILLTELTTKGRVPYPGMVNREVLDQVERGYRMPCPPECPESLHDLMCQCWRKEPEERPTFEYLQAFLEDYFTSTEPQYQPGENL
T28 sequence (Q15349 1-414 limits assumed): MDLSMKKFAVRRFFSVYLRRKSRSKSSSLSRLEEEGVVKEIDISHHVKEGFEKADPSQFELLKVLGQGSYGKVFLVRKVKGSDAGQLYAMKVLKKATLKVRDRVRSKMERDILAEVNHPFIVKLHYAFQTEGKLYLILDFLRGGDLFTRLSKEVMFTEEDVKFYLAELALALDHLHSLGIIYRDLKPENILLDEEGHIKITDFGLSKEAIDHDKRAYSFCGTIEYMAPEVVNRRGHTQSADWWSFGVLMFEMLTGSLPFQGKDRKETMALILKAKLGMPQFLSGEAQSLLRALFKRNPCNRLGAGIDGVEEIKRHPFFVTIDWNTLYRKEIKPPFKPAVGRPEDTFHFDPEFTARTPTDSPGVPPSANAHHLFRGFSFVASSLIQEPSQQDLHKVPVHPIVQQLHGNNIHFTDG
T29 sequence (P10721 26-976 D816H): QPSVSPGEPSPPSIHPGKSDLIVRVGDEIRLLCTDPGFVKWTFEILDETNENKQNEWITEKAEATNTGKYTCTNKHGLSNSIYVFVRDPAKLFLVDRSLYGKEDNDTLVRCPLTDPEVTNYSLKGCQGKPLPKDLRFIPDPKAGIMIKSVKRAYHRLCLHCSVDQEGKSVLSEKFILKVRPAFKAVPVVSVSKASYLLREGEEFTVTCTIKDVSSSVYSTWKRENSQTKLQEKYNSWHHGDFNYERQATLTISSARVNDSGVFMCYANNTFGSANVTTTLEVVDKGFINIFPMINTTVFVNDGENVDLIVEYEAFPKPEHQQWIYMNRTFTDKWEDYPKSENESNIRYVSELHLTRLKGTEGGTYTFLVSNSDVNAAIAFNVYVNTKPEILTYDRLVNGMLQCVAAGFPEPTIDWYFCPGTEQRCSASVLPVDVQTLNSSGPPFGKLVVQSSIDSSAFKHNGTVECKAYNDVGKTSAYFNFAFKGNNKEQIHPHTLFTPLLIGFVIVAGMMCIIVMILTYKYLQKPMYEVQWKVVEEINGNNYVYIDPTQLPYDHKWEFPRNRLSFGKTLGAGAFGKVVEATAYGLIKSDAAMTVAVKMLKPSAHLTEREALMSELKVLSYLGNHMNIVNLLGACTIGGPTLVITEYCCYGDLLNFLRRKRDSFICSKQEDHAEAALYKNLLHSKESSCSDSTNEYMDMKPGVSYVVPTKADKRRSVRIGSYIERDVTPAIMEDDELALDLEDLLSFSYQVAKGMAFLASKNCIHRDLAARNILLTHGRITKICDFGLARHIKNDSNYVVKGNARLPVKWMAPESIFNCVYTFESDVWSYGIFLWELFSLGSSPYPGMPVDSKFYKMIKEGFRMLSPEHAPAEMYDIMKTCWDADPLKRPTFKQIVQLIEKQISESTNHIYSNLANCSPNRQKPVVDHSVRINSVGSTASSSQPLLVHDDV
T5 sequence (P10721 26-976 D816V): as the sequence (P10721 26-976 D816H) above, with H791V counted along it
T4 sequence (Q96Q40 whole entry): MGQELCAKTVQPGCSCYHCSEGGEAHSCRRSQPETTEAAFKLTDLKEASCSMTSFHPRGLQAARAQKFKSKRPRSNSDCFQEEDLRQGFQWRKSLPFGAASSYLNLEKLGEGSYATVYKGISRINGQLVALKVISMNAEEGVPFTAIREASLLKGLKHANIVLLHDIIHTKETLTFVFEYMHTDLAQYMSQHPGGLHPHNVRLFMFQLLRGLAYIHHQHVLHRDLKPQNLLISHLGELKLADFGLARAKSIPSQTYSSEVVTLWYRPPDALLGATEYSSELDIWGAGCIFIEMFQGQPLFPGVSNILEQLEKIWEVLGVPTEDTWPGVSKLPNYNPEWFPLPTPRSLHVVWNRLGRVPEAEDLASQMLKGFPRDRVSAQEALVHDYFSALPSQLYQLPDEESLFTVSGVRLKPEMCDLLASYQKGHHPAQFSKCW

CC(C)NC(=O)COc1cccc(-c2nc(Nc3ccc4[nH]ncc4c3)c3ccccc3n2)c1 [KD025, 2-(3-(4-((1H-indazol-5-yl)amino)quinazolin-2-yl)phenoxy)-N-isopropylacetamide] showed a remaining binding at 10 µM (CSNK1A1L) of 89%, a remaining binding at 10 µM (TYRO3) of 91% and a remaining binding at 10 µM (SRC) of 87%. For the same molecule, the remaining binding at 10 µM (PFTAIRE2) was 52%, the remaining binding at 10 µM (KIT(D816V)) was 57% and the remaining binding at 10 µM (ULK1) was 100%. For the same molecule, the remaining binding at 10 µM (WNK4) was 100%, the remaining binding at 10 µM (PIM3) was 63% and the remaining binding at 10 µM (ALK(L1196M)) was 95%. It also gave a remaining binding at 10 µM (QSK) of 88%, a remaining binding at 10 µM [1] of 94% and a remaining binding at 10 µM (OSR1) of 100%. It also gave a remaining binding at 10 µM [2] of 100%, a remaining binding at 10 µM [3] of 81% and a remaining binding at 10 µM (NEK7) of 91%. For the same molecule, the remaining binding at 10 µM (CHEK1) was 100%, the remaining binding at 10 µM (DAPK1) was 85% and the remaining binding at 10 µM (FGFR1) was 95%. For the same molecule, the remaining binding at 10 µM (RIOK3) was 6.7%, the remaining binding at 10 µM (MUSK) was 59% and the remaining binding at 10 µM (HUNK) was 100%. The remaining binding at 10 µM (IKK-epsilon) was 70%, the remaining binding at 10 µM (FLT3(R834Q)) was 69% and the remaining binding at 10 µM (ERK1) was 63%. It also gave a remaining binding at 10 µM (INSRR) of 83%, a remaining binding at 10 µM (IKK-alpha) of 100% and a remaining binding at 10 µM (PCTK2) of 94%. For the same molecule, the remaining binding at 10 µM [4] was 31%, the remaining binding at 10 µM (KIT(D816H)) was 81% and the remaining binding at 10 µM [5] was 49%. It also gave a remaining binding at 10 µM (RIPK2) of 92%, a remaining binding at 10 µM [6] of 98% and a remaining binding at 10 µM (HIPK1) of 58%.
